Source: US8716233B2, “NOTCH mutations leading to increased receptor signaling” (The Brigham and Women's Hospital, Inc., priority 2004, dated 2014)

Tests used:
NOTCH-1 = assay: NOTCH-sensitive luciferase reporter gene assay in transiently transfected U2OS cells; type: cell-based, human
Description: FIG. 4A-4B. HD and PEST domain mutations activate NOTCH-1 signaling synergistically. (4A) Reporter gene assays. U2OS cells were transiently co-transfected in 24-well format with the indicated pcDNA3 plasmids, a NOTCH-responsive luciferase reporter gene, and an internal Renilla luciferase internal control plasmid, as described previously (Aster, et al., Mol. Cell. Biol. 20:7505-15). Twenty-five ng of pcDNA3 plasmid was used per well, except for experiments with pcDNA3-ICN1, in which 5 ng of plasmid per well were used. Normalized luciferase activities in whole cell lysates were determined in triplicate and expressed relative to the activity in lysates prepared from cells transfected with the empty vector control. (4B) Model for synergistic NOTCH-1 activation by dual mutations involving both the HD and PEST domains.
NOTCH-1 expression plasmids (pcDNA3) were transiently transfected with U2OS cells with (i) an artificial luciferase reporter gene under the control of a promoter containing CSL binding sites and (ii) an internal Renilla luciferase control gene, as described previously (Aster, et al., Mol. Cell. Biol. 20:7505-7515 (2000)), using Lipofectamine Plus (Invitrogen). Total DNA was kept constant by adding empty vector as needed. All transfections were carried out in triplicate, and each experiment was repeated at least three times.

human T-ALL cell lines = assay: Gamma-secretase inhibitor treatment of T-ALL cell lines, cell cycle analysis by flow cytometry; type: cell-based; conditions: compound E 1 μM, 4-8 days; thirty human T-ALL cell lines lacking t(7;9); compared with murine T6E reference line
Description: FIG. 2A-2C. Identification of T-ALL cell lines that require NOTCH signals for growth. (2A) Effect of the γ-secretase inhibitor compound E (GSI, 1 μM) or vehicle alone (mock) on the cell cycle distribution of sensitive cell lines. Cells were treated for 4-8 days, fixed in cold 70% ethanol, stained with propidium iodide, and analyzed by flow cytometry. Live cells were gated by forward/side scatter criteria. (2B) Rescue of GSI-induced cell cycle arrest by MSCV-GFP-ICN1 retrovirus. (2C) Induction of cell cycle arrest by dominant negative MSCV-GFP-Mastermind-like-1 retrovirus. In (2B) and (2C), control cultures were transduced with control empty MSCV-GFP retrovirus or the indicated test virus. Two days post-transduction, cultures were split in two and treated with either compound E (GSI) or DMSO vehicle (mock) for 7-10 days. Cultures were then harvested and stained with the DNA dye DRAQ5, which permits flow cytometric measurement of DNA content in unsorted GFP− and GFP+ subpopulations. A minimum of 15,000 events was collected to create each DNA content histogram. […]
DNA content was ascertained by flow cytometry and cell cycle factors determined using multicycle software (Phoenix Flow Systems, San Diego).

With `C[C@H](NC(=O)Cc1cc(F)cc(F)c1)C(=O)N[C@H]1N=C(c2ccccc2)c2ccccc2N(C)C1=O` [γ-secretase inhibitor, compound E] the “stimulatory effects of mutated transmembrane NOTCH-1 polypeptides on luciferase reporter activity” value (NOTCH-1; HD and/or PEST domain mutated NOTCH-1 plasmids) was “completely abrogated”, the “stimulation of luciferase reporter activity produced by ICN1” value (NOTCH-1; pcDNA3-ICN1 (constitutively nuclear)) was “unaffected” and the “cell cycle distribution (G0/G1 cell cycle arrest) of T-ALL cell lines” value (human T-ALL cell lines) was “five of thirty human T-ALL cell lines tested showed a G0/G1 cell cycle arrest”.
